pIC50: −log10 of the molar value. Counter-ions that a name gives are not always drawn.
How the values were obtained:
D4 receptor = molecular target: T1, D4 receptor (Homo sapiens, UniProt P21917); conditions: various in vitro efficacy assays; cited from earlier work
T1 sequence (P21917 1-419): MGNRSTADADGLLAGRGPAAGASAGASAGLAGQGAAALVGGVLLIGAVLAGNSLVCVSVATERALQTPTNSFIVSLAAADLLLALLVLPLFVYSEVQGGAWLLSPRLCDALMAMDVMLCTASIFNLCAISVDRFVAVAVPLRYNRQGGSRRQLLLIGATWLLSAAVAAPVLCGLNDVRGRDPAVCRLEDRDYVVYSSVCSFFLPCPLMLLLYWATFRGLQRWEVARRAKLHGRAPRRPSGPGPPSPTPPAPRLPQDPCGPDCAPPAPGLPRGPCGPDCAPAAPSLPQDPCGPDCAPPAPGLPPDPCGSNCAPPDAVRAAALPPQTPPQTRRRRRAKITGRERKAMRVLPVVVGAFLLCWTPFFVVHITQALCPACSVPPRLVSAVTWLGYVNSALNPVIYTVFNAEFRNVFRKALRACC

[1] = molecular target: T2, human cloned dopamine D4.2 receptors (Homo sapiens, UniProt P21917, DEL265-296); assay: Inhibition of the binding of [3H]YM-09151-2 to human dopamine D4 receptors; conditions: [3H]YM-09151-2 0.06 nM, membranes of CHO cells
T2 construct: expressed in transfected cells; host or cells: CHO cells (membranes)
T2 sequence (P21917 with tags, fused parts or gaps DEL265-296): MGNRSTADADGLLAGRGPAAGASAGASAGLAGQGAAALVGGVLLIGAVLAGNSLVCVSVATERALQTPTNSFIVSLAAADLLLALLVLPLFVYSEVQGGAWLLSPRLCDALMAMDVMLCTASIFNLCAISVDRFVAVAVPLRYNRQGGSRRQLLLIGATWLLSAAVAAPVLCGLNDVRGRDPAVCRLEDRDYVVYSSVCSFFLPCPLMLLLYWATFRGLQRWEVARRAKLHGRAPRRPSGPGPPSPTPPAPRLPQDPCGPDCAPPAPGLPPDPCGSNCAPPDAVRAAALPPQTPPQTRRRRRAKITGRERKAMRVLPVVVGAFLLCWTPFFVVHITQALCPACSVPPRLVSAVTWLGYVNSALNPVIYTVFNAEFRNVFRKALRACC
Protocol: Inhibition of the Binding of [^3H]YM-09151-2 to Human Dopamine D4 Receptors
By this method, the inhibition by drugs of the binding of [^3H]YM-09151-2 (0.06 nM) to membranes of human cloned dopamine D4.2 receptors expressed in CHO-cells is determined in vitro. Method modified from NEN Life Science Products, Inc., technical data certificate PC2533-10/96.

Structure (SMILES)	melting point [°C]	other results
CC(C)Oc1cccnc1N(C)C1CCN(Cc2ccccc2)CC1 [Compound U-101958]	–	Functional activity at D4 receptor (literature) (D4 receptor): partial D4 receptor agonists
O=C1CCc2ccccc2N1CCCCN1CCC(c2c[nH]c3ccc(F)cc23)CC1 (as salt: hydrochloride) [Compound 4, 5-Fluoro-3-{1-[4-(2-oxo-3,4-dihydro-2H-quinolin-1-yl)butan-1-yl]piperidin-4-yl}-1H-indole]	212 to 213	–
O=C1CCc2ccccc2N1CCCN1CC=C(c2c[nH]c3ccc(F)cc23)CC1 (as salt: oxalate) [Compound 3a, 5-Fluoro-3-{1-[3-(2-oxo-3,4-dihydro-2H-quinolin-1-yl)propan-1-yl]-3,6-dihydro-2H-pyridin-4-yl}-1H-indole]	220 to 223	–
Fc1ccc2[nH]cc(C3=CCN(CCCCN4CCCc5ccccc54)CC3)c2c1 [Compound 9m, 5-Fluoro-3-{1-[4-(3,4-dihydro-2H-quinolin-1-yl)butan-1-yl]-3,6-dihydro-2H-pyridin-4-yl}-1H-indole]	–	pIC50 ([1]; read-out: D4-bind. IC50): 7.77
O=C(CCCN1CCC(c2c[nH]c3cccc(F)c23)CC1)N1CCc2ccccc2C1 [Compound 10b, 4-Fluoro-3-{1-[4-(3,4-dihydro-1H-isoquinolin-2-yl)-4-oxobutan-1-yl]piperidin-4-yl}-1H-indole]	–	inhibition at 0.05 µM ([1]; at 50 nM compound, read-out: D4-bind. % inhibition of binding at 50 nM): 81%

Now from value to molecule, other results behind:

melting point [°C]	Structure (SMILES)	other results
172 to 175	O=C(CCCN1CCC(c2c[nH]c3ccc(Cl)cc23)CC1)N1CCc2ccccc2C1 [Compound 8, 5-Chloro-3-{1-[4-(3,4-dihydro-1H-isoquinolin-2-yl)-4-oxobutan-1-yl]piperidin-4-yl}-1H-indole]	–
146 to 148	O=C(CCCN1CCC(c2c[nH]c3ccc(F)cc23)CC1)N1CCc2ccccc2C1 [Compound 7, 5-Fluoro-3-{1-[4-(3,4-dihydro-1H-isoquinolin-2-yl)-4-oxobutan-1-yl]piperidin-4-yl}-1H-indole]	–
